Laboratory results as given in PMC6104039 (Nature Communications, 2018).
Where “and” joins values, the source holds several entries; their conditions need not be identical. Equal values may be shown once. Entries after “also recorded” stand apart in the source; their conditions may differ.

Assays:
[1] = tested on: SkM; assay: Lipidomic profiling of skeletal muscle (quadriceps) of mice on chow or HFD; type: in vivo
Excerpt: Male C57BL6/J mice were obtained from the Animal Resources Centre in Perth (WA, Australia). […] Treatment was commenced at the same time as mice were randomised to dietary groups. The experiments were approved by the UNSW animal care and ethics committee (ACEC 15/48B), and followed guidelines issued by the National Health and Medical Research Council of Australia.
Lipids were extracted from frozen tissue samples or cells using a two-phase procedure with methyl-tert-butyl ether (MTBE)/methanol/water (10:3:2.5, v/v/v)[67]. Frozen tissue samples (~20 mg) were homogenized in 0.2 mL methanol containing 0.01% butylated hydroxytoluene (BHT), using a Precellys 24 homogenizer and Cryolys cooling unit (Bertin Technologies) with CK14 (1.4-mm ceramic) beads. The homogenates were spiked with an internal standard mixture comprising 5 nmole 19:0/19:0 phosphatidylcholine and 2 nmole each of 17:0/17:0 phosphatidylethanolamine, 17:0/17:0 phosphatidylserine, 17:0/17:0 d5-diacylglycerol, 17:0/17:0 phosphatidylglycerol, 14:0/14:0/14:0/14:0 cardiolipin, 18:1/12:0 SM, 18:1/17:0 ceramide, 18:1/12:0 glucosylceramide, 18:1/12:0 lactosylceramide, 18:1/12:0 sulfatide (all from Avanti Polar Lipids, USA), and 17:0/17:0/17:0 TAG (Cayman Chemical, USA), then transferred to 10 mL screw cap glass tubes. The homogenization tubes containing beads were then washed with another 0.3 mL methanol, and this wash was combined with the first methanol extract, after which 1.7 mL MTBE was added and the samples were sonicated in an ice-cold sonicating water bath (Thermoline Scientific, Australia) for 30 min. Phase separation was induced by addition of 417 µL of mass spectrometry-grade water followed by vortexing and centrifugation at 1000 × g for 10 min. The upper organic phase was collected into 5 mL glass tubes. The lower phase was re-extracted by adding 1 mL MTBE, 300 μL methanol, and 250 μL water. The organic phases were combined in the 5 mL glass tubes and dried under vacuum in a Savant SC210 SpeedVac (Thermo Scientific), then reconstituted in 500 μL methanol and stored at −20 °C until analysis.
Lipidomic profiling was performed on a QExactive Plus mass spectrometer with heated electrospray ionization (HESI) probe and a Dionex UltiMate 2000 LC pump (Thermo Fisher Scientific). Extracts were resolved on a 2.1 × 100 mm Waters Acquity C18 UPLC column (1.7 µm […]), using a binary gradient in which mobile phase A consisted of acetonitrile:water (60:40), 10 mM ammonium formate, 0.1% formic acid; and mobile phase B was isopropanol:acetonitrile (90:10), 10 mM ammonium formate, 0.1% formic acid[68]. The flow rate was 260 µL/min and column oven 55 °C. Data was acquired in full scan/data-dependent MS^2 mode (full scan resolution 70,000 FWHM, scan range 400–1200 m/z). The ten most abundant ions in each cycle were subjected to MS^2 using an isolation window of 1.4 m/z, collision energy 30 eV, resolution 17,500, maximum integration time 110 ms and dynamic exclusion window 10 s. An exclusion list of background ions was used based on a solvent blank. LipidSearch v4.1.30 software (ThermoFisher Scientific) was used for chromatogram alignment, peak identification and integration. Each lipid peak was manually verified for column elution time and characteristic fragment ions. Data were then exported to an Excel spreadsheet for normalisation of each lipid to its class-specific internal standard, and lipid concentrations were calculated relative to the internal standard.
Data were log transformed, then subjected to two-tailed t-tests adjusted for multiple comparisons using GraphPad PRISM (Benjamini, Krieger and Yekutieli correction, Q = 1%).

[2] = tested on: SkM; assay: Real-time PCR of respiratory complex subunits and regulators of mitochondrial biogenesis in SkM; type: in vivo, mice
Method: PCR (40 cycles) was performed on a LightCycler 480 (Roche) using SensiFAST SYBR mastermix (Bioline). For quantification of CerS1 and CerS2 expression, total RNA was purified from mouse tissues with TRIzol reagent (Sigma-Aldrich), followed by DNase treatment (Promega), and reverse transcribed using random hexamer primers with FirstStrand cDNA synthesis kit (Roche), according to manufacturer’s instructions. CerS1 and CerS2 gene expression was determined using a standard curve of Ct against input cDNA, and normalised to 18s RNA. For mitochondrial genes and transcriptional regulators in SkM, total RNA was prepared with TRIzol, and oligo dT primer was used for reverse transcription. Relative gene expression was determined using the ΔΔCt method, with 36B4 and Rpl13 as the reference genes. Samples with excessively high Ct values (Ct > 30 for the housekeeping genes) were removed from data analysis (two samples for Fig. 6a, four samples for Fig. 6g). Gene-specific primers were as follows: […]

[3] = Muscle lipidomic data, Chow Vehicle vs Chow P053, Mean1 minus Mean2
[4] = Muscle lipidomic data, Chow Vehicle vs Chow P053, Mean2 = Chow P053 group
[5] = Muscle lipidomic data, HFD Vehicle vs HFD P053, Mean1 minus Mean2
[6] = Muscle lipidomic data, HFD Vehicle vs HFD P053, Mean2 = HFD P053 group

In the case of `C[C@@](N)(CO)CCc1ccc(OCc2ccc(Cl)c(Cl)c2)cc1` [P053, (S)-2-amino-4-(4-(3,4-dichlorobenzyloxy)phenyl)-2-methylbutan-1-ol], the “SM 36:2 content of skeletal muscle” value ([1]; HFD + P053, individual mice) is reported as 2.88 and 7.47 and 1.66 and 1.87 and 1.75 and 5.22 and 2.66 and 6.56 and 8.38 and 7.06 and 6.58 and 7.04 and 4.61 and 3.90 and 3.95 and 6.89 and 4.71 and 5.16 and 4.33, the “SM 38:1 content of skeletal muscle” value ([1]; HFD + P053, individual mice) is reported as 11.48 and 13.05 and 11.02 and 10.80 and 17.24 and 10.17 and 15.13 and 9.50 and 12.28 and 0.77 (2×) and 0.82 and 1.11 and 0.80 and 0.71 (2×) and 0.68 and 0.83 and 0.73 and the “SM 40:1 content of skeletal muscle” value ([1]; HFD + P053, individual mice) is reported as 27.34 and 27.26 and 26.32 and 23.00 and 31.62 and 23.79 and 31.23 and 22.04 and 24.26 and 29.13 and 27.02 and 34.08 and 33.01 and 18.95 and 25.13 and 25.49 and 34.47 and 24.05 and 33.50. The “SM 40:2 content of skeletal muscle” value ([1]; HFD + P053, individual mice) was 1.78 and 2.91 (2×) and 1.98 and 2.11 and 2.83 and 1.89 and 2.53 and 1.77 and 2.29 and 2.59 and 3.38 and 2.49 and 1.96 and 2.67 and 2.64 and 2.84 and 2.34 and 2.94, the “SM 42:1 content of skeletal muscle” value ([1]; HFD + P053, individual mice) was 15.46 and 16.53 and 18.68 and 19.65 and 22.92 and 14.56 and 23.18 and 14.90 and 18.70 and 19.26 and 17.69 and 25.18 and 22.26 and 12.72 and 19.43 and 19.06 and 23.08 and 18.56 and 31.22 and the “SM 42:2 content of skeletal muscle” value ([1]; HFD + P053, individual mice) was 53.70 and 57.56 and 54.97 and 42.97 and 63.03 and 48.46 and 60.01 and 50.89 and 52.69 and 51.87 and 48.15 and 70.42 and 61.77 and 37.14 and 54.20 and 54.85 and 64.93 and 49.70 and 71.83. For the same compound, the “SM 42:3 content of skeletal muscle” value ([1]; HFD + P053, individual mice) was 9.08 and 11.26 and 8.06 and 8.54 and 12.73 and 9.01 and 12.20 and 10.73 and 15.91 and 12.10 and 11.91 and 13.64 and 11.55 and 7.81 and 10.86 and 9.89 and 12.79 and 9.17 and 13.47, the “reduction of most triacylglycerol (TAG) species in SkM” value ([1]; HFD + P053 compared to HFD + vehicle) was “more than 50%” and the “Cer(d18:1/18:0)+H, Difference” value [1, 3] was 0.4848. For the same compound, the “Cer(d18:2/18:0)+H, Difference” value [1, 3] was 0.6042, the “Cer(d18:1/18:0)+H, Mean2” value [1, 4] was 2.896 and the “Cer(d18:2/18:0)+H, Mean2” value [1, 4] was 0.4179. The “Cer(d18:1/18:0)+H, Difference” value [1, 5] was 0.7206, the “Cer(d18:1/22:0)+H, Difference” value [1, 5] was -0.3135 and the “Cer(d18:1/24:0)+H, Difference” value [1, 5] was -0.4027. For the same compound, the “Cer(d18:1/24:1)+H, Difference” value [1, 5] was -0.3555, the “Cer(d18:2/18:0)+H, Difference” value [1, 5] was 0.8901 and the “SM(d41:1)+H, Difference” value [1, 5] was -0.3059. For the same compound, the “SM(d42:2)+H, Difference” value [1, 5] was -0.2817, the “Cer(d18:1/18:0)+H, Mean2” value [1, 6] was 2.811 and the “Cer(d18:1/22:0)+H, Mean2” value [1, 6] was 0.3563. For the same compound, the “Cer(d18:1/24:0)+H, Mean2” value [1, 6] was 0.4756, the “Cer(d18:1/24:1)+H, Mean2” value [1, 6] was 1.172 and the “Cer(d18:2/18:0)+H, Mean2” value [1, 6] was 0.1066. For the same compound, the “SM(d41:1)+H, Mean2” value [1, 6] was 1.941, the “SM(d42:2)+H, Mean2” value [1, 6] was 3.999 and the “DG levels in SkM” value ([1]; chow or HFD) was “does not affect; also recorded: unaffected”. For the same compound, the “SkM TAG levels” value ([1]; normal chow) was “did not affect”, the “C18 ceramide levels in SkM” value ([1]; pilot study, 7 days, 1 mg/kg/day) was “no effect” and the “reduction of C18 ceramide levels in SkM” value ([1]; pilot study, 7 days, 5 mg/kg/day) was 31%. For the same compound, the “expression of Gabp1α and Nfe2l2” value [2] was “significantly increased” and the “genes encoding respiratory complex subunits (Co-2, Cytb, Atp6, Ndufb5, Atp5o, Cycs, Cox5b)” value [2] was “significant up-regulation”.
